Measured values published in article PMC4286029 (Inflammation Research, 2014).

Assays:
[1] = test system: IL-2-induced IFN-γ production; experiment: IL-2-induced IFN-γ production in mice; assay type: in vivo, DBA/1J mice; settings: Mus musculus, po
Description: DBA/1J mice were dosed once via oral gavage with compounds. At 1 or 6 h after compound administration, the mice were injected intraperitoneally with 2 μg of recombinant mouse IL-2 and 10 μg of biotinylated anti-mouse IFN-γ capture antibody. After 6 h, the mice were euthanized, and blood was collected. Serum IFN-γ was quantified using a Mouse IFN-γ In Vivo Capture Assay Set (BD Biosciences).
After 1 or 6 h, they were injected with IL-2 and anti-mouse IFN-γ capture antibody. At 6 h after the injection, blood samples were collected, and the serum IFN-γ levels were measured.

[2] = target: T1, JNK2α2 (Homo sapiens, UniProt P45984); experiment: KinaseProfiler selectivity: JNK2α2; assay type: biochemical
T1 construct: purchased Millipore Co. Ltd. (KinaseProfiler service)
Description: (§1) […]; The selectivity of JTE-052 for other kinases was assessed using KinaseProfiler™ (Millipore Co. Ltd.). […].

[3] = target: T2, Flt3 (Homo sapiens, UniProt P36888); experiment: KinaseProfiler selectivity: Flt3; assay type: biochemical
T2 construct: purchased Millipore Co. Ltd. (KinaseProfiler service)
Description: as §1

[4] = target: T3, IGF-1R (Homo sapiens, UniProt P08069); experiment: KinaseProfiler selectivity: IGF-1R; assay type: biochemical
T3 construct: purchased Millipore Co. Ltd. (KinaseProfiler service)
Description: as §1

[5] = Cytotoxicity: fibroblast (NHLF) proliferation ([3H]thymidine); settings: human, normal human lung fibroblasts (NHLF)
Description: For determination of cytotoxicity, fibroblast proliferation was measured.

[6] = target: T4, Aurora-A (Homo sapiens, UniProt O14965); experiment: KinaseProfiler selectivity: Aurora-A; assay type: biochemical
T4 construct: purchased Millipore Co. Ltd. (KinaseProfiler service)
Description: as §1

[7] = target: T5, Abl (Homo sapiens, UniProt P00519); experiment: KinaseProfiler selectivity: Abl; assay type: biochemical
T5 construct: purchased Millipore Co. Ltd. (KinaseProfiler service)
Description: as §1

[8] = target: T6, PKBα (Homo sapiens, UniProt P31749); experiment: KinaseProfiler selectivity: PKBα; assay type: biochemical
T6 construct: purchased Millipore Co. Ltd. (KinaseProfiler service)
Description: as §1

[9] = target: T7, PDGFRα (Homo sapiens, UniProt P16234); experiment: KinaseProfiler selectivity: PDGFRα; assay type: biochemical
T7 construct: purchased Millipore Co. Ltd. (KinaseProfiler service)
Description: as §1

[10] = test system: GM-CSF signaling (JAK2/JAK2), Stat5 phosphorylation in hPBMCs; experiment: cells; settings: Homo sapiens, 0.25 h, read-out: IC50, GM-CSF cytokine signaling (JAK2/JAK2)
Description: (§2) hPBMCs (3 × 10^6 cells/tube) were incubated with a test compound for 30 min at 37 °C, and then treated with IL-2 (100 ng/mL), IL-6 (100 ng/mL), IL-23 (100 ng/mL), IFN-α (100 ng/mL), or GM-CSF (1 ng/mL) for an additional 15 min. To terminate the stimulation, the cells were fixed with Fixation Buffer (BD Biosciences) for 10 min at 37 °C. The fixed cells were incubated with Perm Buffer II (BD Biosciences) for 30 min on ice and then incubated with fluorochrome-labeled anti-CD3, anti-CD4, or anti-phospho-Stat antibodies for 30 min at room temperature. The cytokine-induced Stat phosphorylation was analyzed and quantified using a Cytomics FC500 (Beckman Coulter Inc., Brea, CA). In the case of IL-23 stimulation, hPBMCs were precultured with 10 μg/mL phytohemagglutinin (PHA)-M (Sigma-Aldrich Co.) for 3 days to enhance their response to IL-23.
(§3) The phosphorylation levels of Stat5 (IL-2 and GM-CSF), Stat3 (IL-6 and IL-23), or Stat1 (IFN-α) in CD3^+CD4^+ cells (IL-2, IL-23, and IFN-α) or CD3^-CD4^+ cells (IL-6 and GM-CSF) were analyzed by flow cytometry. Data are presented as percentages of mean fluorescence intensity relative to vehicle (100 %) and non-stimulated control cells (0 %). Values are mean ± SEM. Three independent experiments were performed

[11] = test system: IFN-α signaling (JAK1/Tyk2), Stat1 phosphorylation in hPBMCs; experiment: cells; settings: Homo sapiens, 0.25 h, read-out: IC50, IFN-α cytokine signaling (JAK1/Tyk2)
Description: as §2, §3

[12] = test system: IL-23 signaling (JAK2/Tyk2), Stat3 phosphorylation in hPBMCs; experiment: cells; settings: Homo sapiens, 0.25 h, read-out: IC50, IL-23 cytokine signaling (JAK2/Tyk2)
Description: as §2, §3

[13] = test system: IL-2 signaling (JAK1/JAK3), Stat5 phosphorylation in hPBMCs; experiment: cells; settings: Homo sapiens, 0.25 h, read-out: IC50, IL-2 cytokine signaling (JAK1/JAK3)
Description: as §2, §3

[14] = test system: IL-6 signaling (JAK1/JAK2), Stat3 phosphorylation in hPBMCs; experiment: cells; settings: Homo sapiens, 0.25 h, read-out: IC50, IL-6 cytokine signaling (JAK1/JAK2)
Description: as §2, §3

[15] = target: T8, ZAP-70 (Homo sapiens, UniProt P43403); experiment: KinaseProfiler selectivity: ZAP-70; assay type: biochemical
T8 construct: purchased Millipore Co. Ltd. (KinaseProfiler service)
Description: as §1

[16] = target: T9, KDR (Homo sapiens, UniProt P35968); experiment: KinaseProfiler selectivity: KDR; assay type: biochemical
T9 construct: purchased Millipore Co. Ltd. (KinaseProfiler service)
Description: as §1

[17] = target: T10, JNK1α1 (Homo sapiens, UniProt P45983); experiment: KinaseProfiler selectivity: JNK1α1; assay type: biochemical
T10 construct: purchased Millipore Co. Ltd. (KinaseProfiler service)
Description: as §1

[18] = test system: human monocytes; experiment: GM-CSF-induced TNF-α production from monocytes (ELISA); settings: Monocyte, read-out: IC50, GM-CSF enhancement of TNF-α production upon LPS stimulation in monocytes
Description: The cells were then cultured with 0.1 ng/mL lipopolysaccharide (LPS) for an additional 6 h at 37 °C. The supernatants were collected, and secretion of TNF-α was measured by ELISA.

[19] = target: T11, PKCβI (Homo sapiens, UniProt P05771); experiment: KinaseProfiler selectivity: PKCβI; assay type: biochemical
T11 construct: purchased Millipore Co. Ltd. (KinaseProfiler service)
Description: as §1

[20] = target: T12, Met (Homo sapiens, UniProt P08581); experiment: KinaseProfiler selectivity: Met; assay type: biochemical
T12 construct: purchased Millipore Co. Ltd. (KinaseProfiler service)
Description: as §1

[21] = target: T13, Tie2 (Homo sapiens, UniProt Q02763); experiment: KinaseProfiler selectivity: Tie2; assay type: biochemical
T13 construct: purchased Millipore Co. Ltd. (KinaseProfiler service)
Description: as §1

[22] = target: T14, MEK1 (Homo sapiens, UniProt Q02750); experiment: KinaseProfiler selectivity: MEK1; assay type: biochemical
T14 construct: purchased Millipore Co. Ltd. (KinaseProfiler service)
Description: as §1

[23] = target: T15, MSK1 (Homo sapiens, UniProt O75582); experiment: KinaseProfiler selectivity: MSK1; assay type: biochemical
T15 construct: purchased Millipore Co. Ltd. (KinaseProfiler service)
Description: as §1

[24] = target: T16, MAPKAP-K2 (Homo sapiens, UniProt P49137); experiment: KinaseProfiler selectivity: MAPKAP-K2; assay type: biochemical
T16 construct: purchased Millipore Co. Ltd. (KinaseProfiler service)
Description: as §1

[25] = target: T17, CDK1/cyclinB (Homo sapiens, UniProt P06493); experiment: KinaseProfiler selectivity: CDK1/cyclinB; assay type: biochemical
T17 construct: purchased Millipore Co. Ltd. (KinaseProfiler service)
Description: as §1

[26] = target: T18, CHK1 (Homo sapiens, UniProt O14757); experiment: KinaseProfiler selectivity: CHK1; assay type: biochemical
T18 construct: purchased Millipore Co. Ltd. (KinaseProfiler service)
Description: as §1

[27] = target: T19, PKCα (Homo sapiens, UniProt P17252); experiment: KinaseProfiler selectivity: PKCα; assay type: biochemical
T19 construct: purchased Millipore Co. Ltd. (KinaseProfiler service)
Description: as §1

T10 sequence (P45983 1-384 isoform P45983-2, species assumed): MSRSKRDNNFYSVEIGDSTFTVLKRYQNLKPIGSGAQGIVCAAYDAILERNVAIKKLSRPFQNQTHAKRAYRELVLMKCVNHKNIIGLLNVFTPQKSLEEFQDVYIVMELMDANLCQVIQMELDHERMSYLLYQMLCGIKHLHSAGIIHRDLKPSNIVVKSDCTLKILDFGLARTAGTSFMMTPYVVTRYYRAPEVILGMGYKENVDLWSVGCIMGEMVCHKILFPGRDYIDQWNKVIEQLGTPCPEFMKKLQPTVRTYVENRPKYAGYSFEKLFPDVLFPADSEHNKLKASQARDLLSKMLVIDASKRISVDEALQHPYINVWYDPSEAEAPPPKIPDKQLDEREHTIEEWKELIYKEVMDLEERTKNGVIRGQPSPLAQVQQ
T6 sequence (P31749 whole entry, species assumed): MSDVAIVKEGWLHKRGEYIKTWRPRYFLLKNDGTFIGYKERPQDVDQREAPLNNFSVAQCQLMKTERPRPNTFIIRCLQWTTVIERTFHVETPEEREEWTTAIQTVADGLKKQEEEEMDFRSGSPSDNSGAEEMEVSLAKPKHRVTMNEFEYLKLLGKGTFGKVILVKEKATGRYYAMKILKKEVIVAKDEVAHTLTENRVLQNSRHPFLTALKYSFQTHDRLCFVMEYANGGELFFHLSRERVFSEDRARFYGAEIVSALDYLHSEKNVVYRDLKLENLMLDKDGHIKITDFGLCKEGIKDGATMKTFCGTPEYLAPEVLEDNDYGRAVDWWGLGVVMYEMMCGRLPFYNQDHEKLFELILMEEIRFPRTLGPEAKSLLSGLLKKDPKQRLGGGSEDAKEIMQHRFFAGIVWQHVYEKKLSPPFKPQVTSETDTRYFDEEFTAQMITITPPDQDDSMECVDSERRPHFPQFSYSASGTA
T3 sequence (P08069 31-1367, species assumed): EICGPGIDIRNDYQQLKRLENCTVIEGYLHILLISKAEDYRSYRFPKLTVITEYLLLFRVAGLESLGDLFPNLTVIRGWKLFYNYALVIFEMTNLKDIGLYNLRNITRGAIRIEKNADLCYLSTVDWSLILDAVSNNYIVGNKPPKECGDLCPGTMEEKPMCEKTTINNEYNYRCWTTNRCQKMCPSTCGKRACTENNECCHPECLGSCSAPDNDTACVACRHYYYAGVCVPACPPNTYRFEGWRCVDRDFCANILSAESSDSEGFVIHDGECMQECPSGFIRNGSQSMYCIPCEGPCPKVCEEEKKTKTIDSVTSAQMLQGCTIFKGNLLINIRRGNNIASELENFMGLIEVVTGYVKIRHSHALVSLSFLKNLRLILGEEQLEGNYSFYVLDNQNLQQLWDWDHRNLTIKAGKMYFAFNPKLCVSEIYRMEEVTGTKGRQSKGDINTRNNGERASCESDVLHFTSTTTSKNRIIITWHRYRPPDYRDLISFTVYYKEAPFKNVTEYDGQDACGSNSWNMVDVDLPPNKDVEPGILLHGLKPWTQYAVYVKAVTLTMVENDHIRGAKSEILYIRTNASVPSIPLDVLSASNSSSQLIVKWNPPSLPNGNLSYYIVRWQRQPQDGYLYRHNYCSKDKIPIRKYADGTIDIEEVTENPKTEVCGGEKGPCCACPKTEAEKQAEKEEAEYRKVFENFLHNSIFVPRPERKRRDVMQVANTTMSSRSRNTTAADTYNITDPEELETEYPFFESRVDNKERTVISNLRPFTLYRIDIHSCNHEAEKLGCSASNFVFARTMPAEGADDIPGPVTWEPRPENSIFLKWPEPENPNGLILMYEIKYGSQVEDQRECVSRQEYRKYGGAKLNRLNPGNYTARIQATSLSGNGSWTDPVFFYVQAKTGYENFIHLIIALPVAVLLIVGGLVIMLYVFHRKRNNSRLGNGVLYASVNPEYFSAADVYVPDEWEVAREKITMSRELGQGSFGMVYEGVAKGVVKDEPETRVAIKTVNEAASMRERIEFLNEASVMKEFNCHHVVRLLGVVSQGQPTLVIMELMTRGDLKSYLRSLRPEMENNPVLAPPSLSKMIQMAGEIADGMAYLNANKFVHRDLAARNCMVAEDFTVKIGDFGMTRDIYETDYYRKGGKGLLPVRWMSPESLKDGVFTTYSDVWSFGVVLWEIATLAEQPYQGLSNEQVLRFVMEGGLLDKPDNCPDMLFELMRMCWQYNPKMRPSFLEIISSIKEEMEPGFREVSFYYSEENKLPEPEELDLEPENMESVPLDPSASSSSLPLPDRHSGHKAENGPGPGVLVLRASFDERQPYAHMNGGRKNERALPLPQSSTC
T18 sequence (O14757 whole entry, species assumed): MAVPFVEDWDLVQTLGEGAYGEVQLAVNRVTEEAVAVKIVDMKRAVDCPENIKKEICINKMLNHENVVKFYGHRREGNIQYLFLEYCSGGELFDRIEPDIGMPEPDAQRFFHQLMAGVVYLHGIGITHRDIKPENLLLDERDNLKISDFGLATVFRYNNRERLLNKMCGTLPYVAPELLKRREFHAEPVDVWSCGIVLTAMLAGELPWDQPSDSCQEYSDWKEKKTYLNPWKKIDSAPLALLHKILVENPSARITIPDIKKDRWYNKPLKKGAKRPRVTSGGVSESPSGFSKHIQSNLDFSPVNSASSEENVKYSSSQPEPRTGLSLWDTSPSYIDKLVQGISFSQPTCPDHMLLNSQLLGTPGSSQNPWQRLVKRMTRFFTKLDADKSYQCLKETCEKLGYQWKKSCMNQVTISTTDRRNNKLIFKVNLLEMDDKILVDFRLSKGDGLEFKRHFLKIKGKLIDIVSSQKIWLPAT
T17 sequence (P06493 whole entry, species assumed): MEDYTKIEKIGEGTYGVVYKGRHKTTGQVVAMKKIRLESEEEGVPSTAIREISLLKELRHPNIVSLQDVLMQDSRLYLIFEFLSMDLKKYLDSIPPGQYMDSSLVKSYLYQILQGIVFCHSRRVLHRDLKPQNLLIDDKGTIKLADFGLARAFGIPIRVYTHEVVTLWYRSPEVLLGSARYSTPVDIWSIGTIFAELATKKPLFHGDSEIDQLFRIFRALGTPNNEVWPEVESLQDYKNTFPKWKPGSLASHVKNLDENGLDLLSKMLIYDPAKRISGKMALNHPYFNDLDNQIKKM
T17 sequence (P14635 whole entry partner, species assumed): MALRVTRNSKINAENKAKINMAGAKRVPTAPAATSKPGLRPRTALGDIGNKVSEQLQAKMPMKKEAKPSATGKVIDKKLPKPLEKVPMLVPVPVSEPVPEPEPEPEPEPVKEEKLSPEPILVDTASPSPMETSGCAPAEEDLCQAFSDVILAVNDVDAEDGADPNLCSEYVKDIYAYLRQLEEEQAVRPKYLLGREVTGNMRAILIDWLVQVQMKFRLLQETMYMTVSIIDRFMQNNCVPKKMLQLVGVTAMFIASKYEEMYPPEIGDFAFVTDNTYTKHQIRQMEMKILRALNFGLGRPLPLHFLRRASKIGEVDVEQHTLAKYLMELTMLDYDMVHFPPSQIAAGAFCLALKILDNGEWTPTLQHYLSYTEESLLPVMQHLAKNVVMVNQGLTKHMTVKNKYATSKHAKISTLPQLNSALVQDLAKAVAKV
T14 sequence (Q02750 whole entry, species assumed): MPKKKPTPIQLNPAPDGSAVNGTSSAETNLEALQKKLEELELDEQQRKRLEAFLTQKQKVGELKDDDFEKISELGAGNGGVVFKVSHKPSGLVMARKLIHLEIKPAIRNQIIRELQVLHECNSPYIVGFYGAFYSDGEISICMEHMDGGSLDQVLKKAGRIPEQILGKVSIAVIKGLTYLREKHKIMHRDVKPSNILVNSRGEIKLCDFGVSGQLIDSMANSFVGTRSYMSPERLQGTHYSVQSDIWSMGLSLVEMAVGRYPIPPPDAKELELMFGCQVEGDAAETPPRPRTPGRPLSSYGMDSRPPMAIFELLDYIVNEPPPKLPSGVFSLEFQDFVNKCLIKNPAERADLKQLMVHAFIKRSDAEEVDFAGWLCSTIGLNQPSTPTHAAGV
T8 sequence (P43403 whole entry): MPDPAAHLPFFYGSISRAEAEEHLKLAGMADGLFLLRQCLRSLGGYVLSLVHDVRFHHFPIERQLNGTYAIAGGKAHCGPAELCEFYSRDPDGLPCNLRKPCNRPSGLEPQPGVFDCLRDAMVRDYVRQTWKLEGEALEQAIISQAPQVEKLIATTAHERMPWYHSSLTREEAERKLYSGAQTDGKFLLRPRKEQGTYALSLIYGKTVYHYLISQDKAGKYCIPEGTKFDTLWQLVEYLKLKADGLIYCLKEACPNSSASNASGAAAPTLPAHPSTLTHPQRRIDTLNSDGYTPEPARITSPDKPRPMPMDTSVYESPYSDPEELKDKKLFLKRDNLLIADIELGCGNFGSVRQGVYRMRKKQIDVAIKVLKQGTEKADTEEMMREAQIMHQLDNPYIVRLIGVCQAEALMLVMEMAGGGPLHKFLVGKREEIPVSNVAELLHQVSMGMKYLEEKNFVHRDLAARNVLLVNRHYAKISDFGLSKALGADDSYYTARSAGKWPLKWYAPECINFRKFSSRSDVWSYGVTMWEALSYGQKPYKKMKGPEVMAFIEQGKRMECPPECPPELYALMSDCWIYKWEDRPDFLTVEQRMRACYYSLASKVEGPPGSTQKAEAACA
T16 sequence (P49137 whole entry, species assumed): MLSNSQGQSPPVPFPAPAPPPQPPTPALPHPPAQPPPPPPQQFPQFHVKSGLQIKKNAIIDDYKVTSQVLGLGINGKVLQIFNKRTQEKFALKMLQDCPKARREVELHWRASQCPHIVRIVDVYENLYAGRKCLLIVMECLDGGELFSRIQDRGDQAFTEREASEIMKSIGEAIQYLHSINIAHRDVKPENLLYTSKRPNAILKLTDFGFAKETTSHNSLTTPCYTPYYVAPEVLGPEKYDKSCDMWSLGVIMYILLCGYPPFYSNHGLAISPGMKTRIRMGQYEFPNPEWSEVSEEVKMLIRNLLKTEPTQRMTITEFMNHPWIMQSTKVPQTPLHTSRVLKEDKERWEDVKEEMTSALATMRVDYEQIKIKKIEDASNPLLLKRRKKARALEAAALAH

C[C@H]1CN(C(=O)CC#N)[C@]12CCN(c1ncnc3[nH]ccc13)C2 [JTE-052]
ED50 ([1]; dosed 1 h prior to IL-2 injection): 0.24 mg/kg | ED50 ([1]; dosed 6 h prior to IL-2 injection): 1.3 mg/kg | IC50 [2]: > 1 µM | IC50 [3]: > 1 µM | IC50 [4]: > 1 µM | IC50 at 3 days [5]: > 10 µM | IC50 [6]: > 1 µM | IC50 [7]: > 1 µM | IC50 [8]: > 1 µM | IC50 [9]: > 1 µM | IC50 [10]: 0.304 ± 0.022 µM | IC50 [11]: 0.018 ± 0.003 µM | IC50 [12]: 0.084 ± 0.011 µM | IC50 [13]: 0.04 ± 0.009 µM | IC50 [14]: 0.033 ± 0.014 µM | IC50 [15]: > 1 µM | IC50 [16]: > 1 µM | IC50 [17]: > 1 µM | IC50 [18]: 0.277 ± 0.146 µM | IC50 [19]: > 1 µM | IC50 [20]: > 1 µM | IC50 [21]: > 1 µM | IC50 [22]: > 1 µM | IC50 [23]: > 1 µM | IC50 [24]: > 1 µM | IC50 [25]: > 1 µM | IC50 [26]: > 1 µM | IC50 [27]: > 1 µM
